Measured values taken from paper PMC4118831, “Interaction of serum amyloid P component with hexanoyl bis(D-proline) (CPHPC)” (Acta Crystallographica Section D: Biological Crystallography, 2014).

Target: T1, serum amyloid P component (SAP) (Homo sapiens, UniProt P02743)
T1 construct: gene APCS; pentamer purified from serum; 204-residue subunits
Experiment: ITC; crystal structure
Format: binding

T1 sequence (P02743 20-223): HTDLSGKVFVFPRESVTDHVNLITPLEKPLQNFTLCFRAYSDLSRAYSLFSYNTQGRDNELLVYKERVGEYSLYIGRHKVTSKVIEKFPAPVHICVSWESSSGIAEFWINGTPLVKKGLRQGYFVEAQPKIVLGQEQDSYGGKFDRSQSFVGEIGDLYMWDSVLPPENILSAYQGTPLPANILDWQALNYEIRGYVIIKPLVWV

`CC(=O)N1CCC[C@H]1C(=O)O` [N-acetyl-L-proline] was tested, and the Kd was 322 µM.

`CC(=O)N1CCC[C@@H]1C(=O)O` [N-acetyl-D-proline] showed a Kd of 18.6 µM.
